# According to article PMC11462456 (Chemical Science, 2024):
# Assays:
# CRBN = biological target: T1, CRBN (Homo sapiens, UniProt Q96SW2); experiment: E3 ligase homo-degradation by western blot, CRBN; type: cell-based; conditions: HEK293 cells, 4 h, 0.1, 1 and 10 μM
# T1 construct: western blot analysis of the levels of CRBN and VHL E3 ligase in cell lysate; endogenous in cells; host or cells: HEK293 (ATCC)
# Text: (§1) 4. Biological experiments
# (§2) Primary antibodies used for western blotting included anti-human BRD2(1:2000, rabbit monoclonal, Abcam, ab139690), anti-human BRD3 (1:1000, rabbit monoclonal, Abcam, ab264420), anti-human BRD4 (E2A7X) (1:1000, rabbit monoclonal, Cell Signaling Technology, #13440), anti-human VHL (1:1000, rabbit polyclonal, Cell Signaling Technology, #68547), anti-human CRBN (D8H3S) (1:1000, rabbit polyclonal, Cell Signaling Technology, #71810), anti-human alpha Tubulin, clone B-5-1-2 (1:5000, mouse monoclonal, Merck Life Science, # 32-2500).Secondary antibodies used for western blot included: anti-mouse horseradish peroxidase-linked antibody (1:3000, sheep, GE Healthcare Life Sciences, #NA931V), and anti-rabbit horseradish peroxidase-linked antibody (1:8000, donkey, GE Healthcare Life Sciences, #NA934V). Reagent for degradation assay and compounds […]
# dr. Serge Van Calenbergh, Ghent University).
# 4.2 Cell lines and culture
# HEK293, A549, SKOV-3, HCT116 cells (ATCC)were grown in DMEM (Gibco),and all cells were supplemented with 10% (v/v) fetal bovine serum (FBS) (Sigma), […] penicillin/streptomycin solution (Thermo Fisher Scientific) and maintained at 37 °C and 5% CO2 in a humidified atmosphere. All cells used were tested monthly using the Mycoalert Mycoplasma Detection Kit (cat. no. LT07-318, Lonza) to exclude mycoplasma contamination.
# 4.3 Degradation assays by Western blot
# General method of Western blot: Lysates were sonicated and centrifuged at 4 °C at 20000 g for 15 min, and the supernatants were transferred to new tubes. Protein concentration of cell lysates was measured using the DC Protein Assay kit (BIO-RAD) following manufacturer's instructions. Cell lysates were mixed with reducing sample buffer (0.5 M Tris-HCl (pH 6.8), 43% glycerol, 9.2% SDS, 5% 2-mercaptoethanol, 5% bromophenol blue) and boiled for 5 min at 95°C. […]
# (§3) Figure S5 Homo-degradation effect in Dual-ligand PROTACs. […] Subsequently, cell lysates were prepared and the protein levels of CRBN or VHL E3 ligase were assessed by Western blotting. […]
# [1] = test system: HEK293, A549, HCT116 and SKOV-3; experiment: CellTiter-Glo metabolic activity, cell line panel; type: cell-based; conditions: 48 h
# Procedure: (§4) 4.4 Cell viability assay on 2D cells cultures
# (§5) HEK293, HCT116, A549,andSKOV-3 cells were seeded in 96-well tissue culture plates at a density of 2000-3000 cells per well in 100 µl of growth medium and incubated overnight at 37 °C with 5% CO2. The following day, the cells were treated with various concentrations of compounds or 0.05% DMSO for 48 h. After treatment, add 100 μl of Cell Titer-Glo® 2.0 Reagent (cat. no. G9243, Promega) in each well, then the 96-well plates were put on an orbital shaker for 10 min and then allow the plate to incubate at room temperature for 10-20min to stabilize the luminescent signal. Luminescence readout (Gen5 Data Analysis Software v3.08.01) was performed to record luminescence.
# (§6) (1 picture or pasted object on this page, not shown here)
# A549 cells [2] = experiment: MTT cell viability with and without washout; type: cell-based, human
# Procedure: Figure S6 Dual-ligand PROTAC activity is not caused by enhanced BRD-inhibition by dual JQ1
# display. A549 cells were treated with an escalating dose of 2J2V, 2J-N3 and JQ1, respectively, for 8h.
# Subsequently, cells were either washed and cultured in fresh medium, or left untouched. After a total
# of 48h, cell viability was measured by MTT assay (n=6). […]
# VHL = biological target: T2, VHL (Homo sapiens, UniProt P40337); experiment: E3 ligase homo-degradation by western blot, VHL; type: cell-based; conditions: HEK293 cells, 4 h, 1 μM and 10 μM
# T2 construct: western blot analysis of the levels of CRBN and VHL E3 ligase in cell lysate; endogenous in cells; host or cells: HEK293 (ATCC)
# T2 sequence (P40337 whole entry): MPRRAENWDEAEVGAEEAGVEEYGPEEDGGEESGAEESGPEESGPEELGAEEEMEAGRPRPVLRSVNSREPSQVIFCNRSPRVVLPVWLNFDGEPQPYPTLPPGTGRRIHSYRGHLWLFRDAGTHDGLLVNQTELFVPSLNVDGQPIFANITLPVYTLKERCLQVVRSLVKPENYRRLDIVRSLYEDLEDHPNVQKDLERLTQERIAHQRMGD
# Text: as §1, §2
# dr. Serge Van Calenbergh, Ghent University). […]
# General method of Western blot: Lysates were sonicated and centrifuged at 4 °C at 20000 g for 15 min, and the supernatants were transferred to new tubes. Protein concentration of cell lysates was measured using the DC Protein Assay kit (BIO-RAD) following manufacturer's instructions. […]
# as §3
# A549 cells [3] = experiment: CellTiter-Glo 2D metabolic activity assay, A549; type: cell-based; conditions: Homo sapiens, 2D culture, 48 h
# Procedure: as §4, §5, §6
# HCT116 cells = experiment: CellTiter-Glo 2D metabolic activity assay, HCT116; type: cell-based; conditions: Homo sapiens, HCT-116, 2D culture, 48 h
# Procedure: as §4, §5, §6
# HEK293 cells = experiment: CellTiter-Glo 2D metabolic activity assay, HEK293; type: cell-based; conditions: Homo sapiens, 2D culture, 48 h
# Procedure: Figure S5 Homo-degradation effect in Dual-ligand PROTACs. HEK293 cells were treated with all synthesized PROTACs or 2V-alkyne/2P-alkyne for 4 hours. Subsequently, cell lysates were prepared and the protein levels of CRBN or VHL E3 ligase were assessed by Western blotting. (A) Representative image of CRBN or VHL E3 ligase homo-degradation was screened for all PROTACs and commercial single-ligand PROTACs at a concentration of 0.1, 1 and 10 µM, respectively (equivalent volume of DMSO as control group). (B) Representative image of CRBN or VHL E3 ligase homo-degradation was screened for 2P-alkyne or 2V-alkyne at a concentration of 0.1, 1 and 10 µM, respectively (equivalent volume of DMSO as control group). Experiments were performed as three independent replicates.
# as §4
# HEK293, HCT116, A549,andSKOV-3 cells were seeded in 96-well tissue culture plates at a density of 2000-3000 cells per well in 100 µl of growth medium and incubated overnight at 37 °C with 5% CO2. The following day, the cells were treated with various concentrations of compounds or 0.05% DMSO for 48 h. […] Luminescence readout (Gen5 Data Analysis Software v3.08.01) was performed to record luminescence. […]
# T1 sequence (Q96SW2 whole entry): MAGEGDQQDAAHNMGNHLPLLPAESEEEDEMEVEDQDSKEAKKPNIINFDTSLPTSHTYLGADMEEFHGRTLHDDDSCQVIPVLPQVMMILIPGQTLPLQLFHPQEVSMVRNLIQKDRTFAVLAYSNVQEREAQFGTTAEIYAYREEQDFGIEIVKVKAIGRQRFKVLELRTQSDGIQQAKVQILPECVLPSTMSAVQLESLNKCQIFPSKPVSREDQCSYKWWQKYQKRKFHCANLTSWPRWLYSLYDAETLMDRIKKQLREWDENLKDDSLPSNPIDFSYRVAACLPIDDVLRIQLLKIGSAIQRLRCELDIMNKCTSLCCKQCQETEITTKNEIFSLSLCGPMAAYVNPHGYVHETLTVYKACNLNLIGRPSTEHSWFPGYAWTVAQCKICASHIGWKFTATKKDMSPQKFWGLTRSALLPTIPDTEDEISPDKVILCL
compound,measurement,setting,value
Cc1sc2c(c1C)C(c1ccc(Cl)cc1)=N[C@@H](CC(=O)NCCOCCOCCNC(=O)C[C@H](NC(=O)COCCOCCOCCOCCn1cc(CCC(=O)N[C@@H](CC(=O)NCCOCCOCCNc3cccc4c3C(=O)N(C3CCC(=O)NC3=O)C4=O)C(=O)NCCOCCOCCNc3cccc4c3C(=O)N(C3CCC(=O)NC3=O)C4=O)nn1)C(=O)NCCOCCOCCNC(=O)C[C@@H]1N=C(c3ccc(Cl)cc3)c3c(sc(C)c3C)-n3c(C)nnc31)c1nnc(C)n1-2 (some centres unmarked) [2J2P],CRBN level (homo-degradation),CRBN,did not induce any significant decrease of CRBN
Cc1ncsc1-c1ccc(C(C)NC(=O)C2CC(O)CN2C(=O)C(NC(=O)COCCOCCNC(=O)CC(NC(=O)CCc2cn(CCOCCOCCOCCOCC(=O)NC(CC(=O)NCCOCCOCCNC(=O)CC3N=C(c4ccc(Cl)cc4)c4c(sc(C)c4C)-n4c(C)nnc43)C(=O)NCCOCCOCCNC(=O)CC3N=C(c4ccc(Cl)cc4)c4c(sc(C)c4C)-n4c(C)nnc43)nn2)C(=O)NCCOCCOCC(=O)NC(C(=O)N2CC(O)CC2C(=O)NC(C)c2ccc(-c3scnc3C)cc2)C(C)(C)C)C(C)(C)C)cc1 (centres unmarked) [2J2V],"metabolic inhibition, comparison",[1],greater metabolic response compared to the CRBN ligase-based dual-ligand PROTACs 2J2P
same,cytotoxic activity,A549 cells [2]; 48 hours,much more potent
same,cytotoxic potency after washout,"A549 cells [2]; washout after 8 hours, 48 hours total",largely retained its potency after washout
same,VHL homo-degradation,VHL,did induce homo-degradation of VHL
"Cc1ncsc1-c1ccc(CNC(=O)C2CC(O)CN2C(=O)C(NC(=O)COCCOCCOCCNC(=O)CC2N=C(c3ccc(Cl)cc3)c3c(sc(C)c3C)-n3c(C)nnc32)C(C)(C)C)cc1 (centres unmarked) [MZ1, reference compound]",EC50,A549 cells [3],400 nM
same,EC50,HCT116 cells,100 nM
same,EC50,HEK293 cells,> 10000 nM
